Earlier results on three compounds are cited in US7638651B2, “Substituted cyclohexanones” (Auspex Pharmaceuticals, priority 2007, dated 2009).

The conditions of series [1]: for half-life: ketamine: depending on the mode of administration.

Regarding `NC1(c2ccccc2Cl)CCCCC1=O` (centres unmarked) [Norketamine, N-desmethylketamine], the half-life entry in series [1] is recorded as “about five”. For the same compound, the “potency relative to the parent drug” value (as potent as the parent drug (ketamine)) is on record as “roughly one third”. With `CNC1(c2ccccc2Cl)CCCCC1=O` (centres unmarked) [Ketamine], in series [1] (in vivo), the “blood to plasma ratio” value was about 0.82. Moreover, in series [1], the half-life entry is “two to about five”. In the case of `CN[C@]1(c2ccccc2Cl)CCCCC1=O` (single isomer, unassigned) [S-(+) isomer], the “potency relative to the R-(−) isomer” value (more potent than the R-(−) isomer) is “approximately four”.
